Reference: patent publication US9540314B2, “N-cycloalkyl-N-[(cycloalkenylphenyl)methylene]-(thio) carboxamide derivatives” (BAYER INTELLECTUAL PROPERTY GMBH, priority 2012, dated 2017)

Assays:
[1] = test system: Pyrenophora teres; test: In vivo preventive test on Pyrenophora teres (barley); settings: barley plants, grading 14 days after contamination
Description: (§1) The active ingredients tested are prepared by homogenization in a mixture of acetone/tween/DMSO, and then diluted with water to obtain the desired active material concentration.
Barley plants (“Plaisant” variety), sown in starter cups on a 50/50 peat soil pozzolana substrate and grown at 22° C., are treated at the 1 leaf stage (10 cm height) by spraying with the active ingredient prepared as described above. Plants, used as controls, are treated with the mixture of acetone/tween/DMSO/water not containing the active material.
After 24 hours, the plants are contaminated by spraying the leaves with an aqueous suspension of Pyrenophora teres spores (12 000 spores per mL). The spores are collected from a 12-day-old culture.
The contaminated barley plants are incubated for 48 hours at 20° C. and at 100% relative humidity, and then for 12 days at 20° C. at 70-80% relative humidity.
Grading (% of efficacy) is carried out 14 days after the contamination, in comparison with the control plants.
Under these conditions, good (at least 70%) to total protection is observed at a dose of 500 ppm of active ingredient with the following compounds from table H1: […]

[2] = test system: Sphaerotheca fuliginea; test: In vivo preventive test on Sphaerotheca fuliginea (powdery mildew on cucurbits); settings: 500 ppm, gherkin plants, grading 12 days after contamination
Description: (§2) The active ingredients tested are prepared by homogenization in a mixture of acetone/tween/DMSO and then diluted with water to obtain the desired active material concentration.
Gherkin plants (“Vert petit de Paris” variety), sown in starter cups on a 50/50 peat soil-pozzolana substrate and grown at 24° C., are treated at the Z11 cotyledon stage by spraying with the active ingredient prepared as described above. Plants, used as controls, are treated with the mixture of acetone/tween/DMSO/water not containing the active material.
After 24 hours, the plants are contaminated by spraying the cotyledons with an aqueous suspension of Sphaerotheca fuliginea spores (100 000 spores per mL). The spores are collected from infected plants. The contaminated gherkin plants are incubated at about 20° C. and at 70-80% relative humidity.
(§3) Grading (% of efficacy) is carried out 12 days after the contamination, in comparison with the control plants.
Under these conditions, good (at least 70%) to total protection is observed at a dose of 500 ppm of active ingredient with the following compounds from table A: […]

[3] = test system: Puccinia recondita; test: In vivo preventive test on Puccinia recondita (brown rust on wheat); settings: 500 ppm of active ingredient; wheat plants, preventive spray; grading 12 days after contamination
Description: as §1
(§4) Wheat plants (“Scipion” variety), sown in starter cups on a 50/50 peat soil pozzolana substrate and grown at 22° C., are treated at the 1 leaf stage (10 cm height) by spraying with the active ingredient prepared as described above. Plants, used as controls, are treated with the mixture of acetone/tween/DMSO/water not containing the active material.
(§5) After 24 hours, the plants are contaminated by spraying the leaves with an aqueous suspension of Puccinia recondita spores (100 000 spores per mL). The spores are collected from an infected plant and are suspended in water containing 2.5 mL/L of Tween 80 at 10%. The contaminated wheat plants are incubated for 24 hours at 20° C. and at 100% relative humidity, and then for 10 days at 20° C. and at 70-80% relative humidity.
as §3
Under these conditions, good (at least 70%) to total protection is observed at a dose of 500 ppm of active ingredient with the following compounds from table I: […]

[4] = test system: Alternaria brassicae; test: In vivo preventive test on Alternaria brassicae (leaf spot on radish); settings: radish plants
Description: as §1
Radish plants (“Pernod Clair” variety), sown in starter cups on a 50/50 peat soil pozzolana substrate and grown at 17° C., are treated at the cotyledon stage by spraying with the active ingredient prepared as described above. Plants, used as controls, are treated with the mixture of acetone/tween/DMSO/water not containing the active material.
After 24 hours, the plants are contaminated by spraying the cotyledons with an aqueous suspension of Alternaria brassicae spores (50 000 spores per mL). The spores are collected from a 15-day-old culture.
The contaminated radish plants are incubated at 20° C. and at 100% relative humidity.
Grading (% of efficacy) is carried out 6 days after the contamination, in comparison with the control plants.
Under these conditions, high (at least 80%) to excellent (at least 90%) protection is observed at a dose of 500 ppm of active ingredient with the following compounds from table C1: […]

[5] = log P by HPLC on a reversed-phase column (C 18), EEC Directive 79/831 Annex V.A8; type: physicochemical; settings: Table 1, HPLC C 18, 40° C., 0.1% aqueous formic acid and acetonitrile, several values = mixture of 2 or more isomers; for chromatographic logP: reversed-phase HPLC column (C 18)
Description: In table 1, the log P values were determined in accordance with EEC Directive 79/831 Annex V.A8 by HPLC (High Performance Liquid Chromatography) on a reversed-phase column (C 18), using the method described below:
Temperature: 40° C.; Mobile phases: 0.1% aqueous formic acid and acetonitrile; linear gradient from 10% acetonitrile to 90% acetonitrile.
Calibration was carried out using unbranched alkan-2-ones (comprising 3 to 16 carbon atoms) with known log P values (determination of the log P values by the retention times using linear interpolation between two successive alkanones). lambda-max-values were determined using UV-spectra from 200 nm to 400 nm and the peak values of the chromatographic signals.

[6] = test system: Septoria tritici; test: In vivo preventive test on Septoria tritici (wheat); settings: 500 ppm of active ingredient; wheat plants, preventive spray; grading 24 days after contamination
Description: as §1, §4
After 24 hours, the plants are contaminated by spraying the leaves with an aqueous suspension of cryopreserved Septoria tritici spores (500 000 spores per mL). The contaminated wheat plants are incubated for 72 hours at 18° C. and at 100% relative humidity, and then for 21 days at 90% relative humidity.
Grading (% of efficacy) is carried out 24 days after the contamination, in comparison with the control plants.
Under these conditions, good (at least 70%) to total protection is observed at a dose of 500 ppm of active ingredient with the following compounds from table J: […]

[7] = test system: Uromyces appendiculatus; test: In vivo preventive test on Uromyces appendiculatus (bean rust); settings: bean plants
Description: as §1
as §5, with “of Uromyces appendiculatus” for “of Puccinia recondita”, “spores (150” for “spores (100”, “from” for “from an”, “infected plants” for “infected plant”, “contaminated bean” for “contaminated wheat”
Grading (% of efficacy) is carried out 11 days after the contamination, in comparison with the control plants.

[8] = test system: Botrytis cinerea; test: In vivo preventive test on Botrytis cinerea (grey mould), gherkin plants; settings: 500 ppm of active ingredient, preventive spray, grading 4 to 5 days after contamination
Description: as §2
Gherkin plants (“Vert petit de Paris” variety), sown in starter cups on a 50/50 peat soil pozzolana substrate and grown at 24° C., are treated at the Z11 cotyledon stage by spraying with the active ingredient prepared as described above. Plants, used as controls, are treated with the mixture of acetone/tween/DMSO/water not containing the active material.
After 24 hours, the plants are contaminated by spraying the cotyledons with an aqueous suspension of cryopreserved Botrytis cinerea spores (50 000 spores per mL). The spores are suspended in a nutrient solution composed of 10 g/L of PDB, 50 g/L of D-Fructose, 2 g/L of NH4NO3 and 1 g/L of KH2PO4. The contaminated gherkin plants are incubated at 17° C. and at 90% relative humidity.
Grading (% of efficacy) is carried out 4 to 5 days after the contamination, in comparison with the control plants.
Under these conditions, good (at least 70%) to total protection is observed at a dose of 500 ppm of active ingredient with the following compounds from table F: […]

[9] = 500 ppm of active ingredient, preventive spray
[10] = 500 ppm of active ingredient, preventive spray, grading 11 days after contamination (table K1)
[11] = dose 100 ppm, comparison with saturated analogues (table K2)
[12] = dose 500 ppm, comparison with saturated analogues (table K2)

Structure (SMILES) | Efficacy [1, 9] | Efficacy [2] | Efficacy [3] | Efficacy ([4]; Table C1, 500 ppm, grading 6 days after contamination) | Efficacy ([4]; Table C2, dose 100 ppm, 6 days after contamination) | Efficacy ([4]; Table C2, dose 100 ppm, 6 days after contamination, listed as 1.32) | Efficacy ([4]; Table C2, dose 500 ppm, 6 days after contamination) | Efficacy ([4]; Table C2, dose 500 ppm, 6 days after contamination, listed as 1.32) | logP [5] | Efficacy [6] | Efficacy [7, 10] | Efficacy [8] | Efficacy ([1]; Table H2, 100 ppm, preventive) | Efficacy [7, 11] | Efficacy [7, 12] | chromatographic logP [5]
CC(c1ccccc1C1=CCCCC1)N(C(=O)c1c(C(F)F)nn(C)c1F)C1CC1 (racemic) [I.32] | 97% | 100% | 98% | 98% | 98% | at least 95% | 98% | at least 95% | 4.61 | 100% | – | – | – | – | – | –
CC1CC=C(c2ccc(Cl)cc2CN(C(=O)c2c(C(F)F)nn(C)c2F)C2CC2)CC1 (racemic) [I.46] | – | 100% | 75% | – | – | – | – | – | 5.36 | 86% | – | – | – | – | – | –
Cn1cc(C(=O)N(Cc2ccccc2C2=CCCC2)C2CC2)c(C(F)F)n1 [I.2] | – | 94% | 94% | – | – | – | – | – | 3.63 | 88% | 100% | 100% | – | – | – | –
Cn1nc(C(F)F)c(C(=O)N(Cc2ccccc2C2=CCCC2)C2CC2)c1F [I.3] | – | 100% | 98% | – | – | – | – | – | 4.06 | 98% | 100% | – | 86% | 99% | 100% | –
Cn1nc(C(F)F)c(C(=O)N(Cc2ccccc2C2=CCCC2)C2CC2)c1Cl [I.4] | – | – | 100% | – | – | – | – | – | 4.26 | – | 99% | 77% | – | – | – | –
Cn1nc(C(F)F)c(C(=O)N(Cc2cc(C3=CCCC3)ccc2C2=CCCC2)C2CC2)c1F [I.18] | – | – | – | – | – | – | – | – | 5.62 | – | – | 100% | – | – | – | –
CC(c1cc(F)ccc1C1=CCCC1)N(C(=O)c1c(C(F)F)nn(C)c1F)C1CC1 (stereo not drawn) [I.25, N-{1-[2-(cyclopent-1-en-1-yl)-5-fluorophenyl]ethyl}-N-cyclopropyl-3-(difluoromethyl)-5-fluoro-1-methyl-1H-pyrazole-4-carboxamide] | 100% | 100% | – | – | – | – | – | – | – | 100% | – | 100% | – | – | – | 4.34
Cn1cc(C(=O)N(Cc2ccccc2C2=CCCCC2)C2CC2)c(C(F)F)n1 [I.27] | – | 98% | 88% | – | – | – | – | – | 3.99 | 94% | 98% | 100% | – | 24% | 98% | –
Cn1nc(C(F)F)c(C(=O)N(Cc2ccccc2C2=CCCCC2)C2CC2)c1F [I.28] | 79% | 100% | 100% | – | – | – | – | – | 4.49 | 94% | 100% | 100% | – | 98% | 100% | –
Cn1cc(C(=O)N(Cc2ccccc2C2=CCCCC2)C2CC2)c(C(F)F)c1 [I.30] | – | 83% | – | – | – | – | – | – | 4.46 | – | 78% | 81% | – | – | – | –
O=C(c1ccsc1I)N(Cc1ccccc1C1=CCCCC1)C1CC1 [I.31] | – | – | – | – | – | – | – | – | 5.22 | – | – | 100% | – | – | – | –
Cn1nc(C(F)F)c(C(=S)N(Cc2cc(Cl)ccc2C2=CCCCC2)C2CC2)c1F [I.43] | 71% | 80% | 78% | – | – | – | – | – | 5.56 | 97% | 89% | – | – | – | – | –
Cn1nc(C(F)F)c(C(=O)N(Cc2cc(F)ccc2C2=CCCCC2)C2CC2)c1Cl [I.44, 5-chloro-N-[2-(cyclohex-1-en-1-yl)-5-fluorobenzyl]-N-cyclopropyl-3-(difluoromethyl)-1-methyl-1H-pyrazole-4-carboxamide] | – | – | 81% | – | – | – | – | – | – | 79% | – | – | – | – | – | 4.69
Cn1cc(C(=O)N(Cc2ccccc2C2=CCCCCC2)C2CC2)c(C(F)F)n1 [I.49] | 79% | 100% | 81% | – | – | – | – | – | 4.44 | 88% | 99% | 100% | – | – | – | –
Cn1cc(C(=O)N(Cc2ccccc2C2=CCCCCC2)C2CC2)c(C(F)F)c1 [I.50] | – | 100% | 81% | – | – | – | – | – | 4.93 | 100% | 99% | 98% | – | – | – | –
Cn1nc(C(F)F)c(C(=O)N(Cc2ccccc2C2=CCCCCC2)C2CC2)c1Cl [I.51] | – | 83% | 88% | – | – | – | – | – | 5.06 | 81% | 96% | – | – | – | – | –
Cn1nc(C(F)F)c(C(=O)N(Cc2ccccc2C2=CCCCCC2)C2CC2)c1F [I.53] | 79% | 100% | 98% | – | – | – | – | – | 4.85 | 100% | 100% | 100% | – | – | – | –
